What was measured:
Assay type in all cases: in vivo
[1] = test system: Abutilon theophrasti (ABUTH); test: Post-emergence Test (glasshouse, percentage damage to the plant); details: post-emergence spray, 1000 g/ha unless otherwise stated, evaluated after 13 days
How it was run: (§1)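 After sowing in standard soil, pots were kept at 24/16 °C (day/night), 14 h light and 65% humidity. They were sprayed at 1000 g/ha unless otherwise stated, watered twice daily, and assessed for percentage damage at 13 days on a 1–5 scale.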

[2] = test system: Amaranthus retoflexus (AMARE); test: as above; details: post-emergence spray, 1000 g/ha unless otherwise stated, evaluated after 13 days
How it was run: as §1

[3] = test system: Echinochloa crus-galli (ECHCG); test: as above; details: post-emergence spray, 1000 g/ha unless otherwise stated, evaluated after 13 days
How it was run: as §1

[4] = test system: Ipomoea hederacea (IPOHE); test: as above; details: post-emergence spray, 1000 g/ha unless otherwise stated, evaluated after 13 days
How it was run: (§2)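 Seeds are sown in standard soil under controlled glasshouse conditions. The pots are then sprayed at 1000 g/ha, unless otherwise stated, with compound in acetone/water (50:50) containing 0.5% Tween 20. After 13 days further growth, percentage plant damage is scored from 1 (0-20%) to 5 (81-100%).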

Setaria faberi (SETFA) [5] = test: as above; details: post-emergence spray, 1000 g/ha unless otherwise stated, evaluated after 13 days
How it was run: as §2

Zea mays (ZEAMX) [6] = test: as above; details: post-emergence spray, 1000 g/ha unless otherwise stated, evaluated after 13 days
How it was run: as §2

[7] = test system: Amaranthus retoflexus (AMARE); test: Pre-emergence Test (glasshouse, percentage damage to the plant); details: 1000 g/ha unless otherwise stated, five-point scale
Setaria faberi (SETFA) [8] = test: as above; details: 1000 g/ha unless otherwise stated, five-point scale
[9] = test system: Echinochloa crus-galli (ECHCG); test: as above; details: 1000 g/ha unless otherwise stated, five-point scale
[10] = test system: Ipomoea hederacea (IPOHE); test: as above; details: 1000 g/ha unless otherwise stated, five-point scale
[11] = test system: Abutilon theophrasti (ABUTH); test: as above; details: 1000 g/ha unless otherwise stated, five-point scale
Zea mays (ZEAMX) [12] = test: as above; details: 1000 g/ha unless otherwise stated, five-point scale

Structure (SMILES)	Post-emergence Test ABUTH, percentage damage to the plant (five-point scale) [1]	Post-emergence Test AMARE, percentage damage to the plant (five-point scale) [2]	Post-emergence Test ECHCG, percentage damage to the plant (five-point scale) [3]	Post-emergence Test IPOHE, percentage damage to the plant (five-point scale) [4]	Post-emergence Test SETFA, percentage damage to the plant (five-point scale) (Setaria faberi (SETFA) [5])	Post-emergence Test ZEAMX, percentage damage to the plant (five-point scale) (Zea mays (ZEAMX) [6])	percentage damage to the plant, AMARE [7]	percentage damage to the plant, SETFA (Setaria faberi (SETFA) [8])	percentage damage to the plant, ECHCG [9]	percentage damage to the plant, IPOHE [10]	percentage damage to the plant, ABUTH [11]	percentage damage to the plant, ZEAMX (Zea mays (ZEAMX) [12])
CCn1c(C)c(-c2ccc(OC(F)(F)F)cc2)c(=O)c(C(=O)O)c1-c1ccc(Cl)c(Cl)c1 [Compound 95, 2-(3,4-dichlorophenyl)-1-ethyl-6-methyl-4-oxo-5-[4-(trifluoromethoxy)phenyl]pyridine-3-carboxylic acid]	3 (3=41-60%)	3 (3=41-60%)	3 (3=41-60%)	2 (2=21-40%)	3 (3=41-60%)	2 (2=21-40%)	1 (1=0-20%)	4 (4=61-80%)	2 (2=21-40%)	1 (1=0-20%)	1 (1=0-20%)	1 (1=0-20%)
CCn1c(C)c(-c2ccc(Cl)cc2)c(=O)c(C(=O)O)c1-c1ccc(F)c(F)c1 [Compound 128, 5-(4-chlorophenyl)-2-(3,4-difluorophenyl)-1-ethyl-6-methyl-4-oxo-pyridine-3-carboxylic acid]	4 (4=61-80%)	3 (3=41-60%)	3 (3=41-60%)	2 (2=21-40%)	4 (4=61-80%)	3 (3=41-60%)	4 (4=61-80%)	5 (5=81-100%)	2 (2=21-40%)	1 (1=0-20%)	3 (3=41-60%)	2 (2=21-40%)
CCOC(=O)c1c(-c2ccc(F)c(F)c2)n(CC)c(C)c(-c2ccc(Cl)cc2)c1=O [Compound 152, ethyl 5-(4-chlorophenyl)-2-(3,4-difluorophenyl)-1-ethyl-6-methyl-4-oxo-pyridine-3-carboxylate]	0	0	0	0	0	0	0	0	0	0	0	0
CCOc1cc(-c2c(C)n(CC)c(-c3ccc(Cl)c(Cl)c3)c(C(=O)O)c2=O)ccc1C(F)(F)F [Compound 65, 2-(3,4-dichlorophenyl)-5-[3-ethoxy-4-(trifluoromethyl)phenyl]-1-ethyl-6-methyl-4-oxo-pyridine-3-carboxylic acid]	1 (1=0-20%)	1 (1=0-20%)	1 (1=0-20%)	1 (1=0-20%)	1 (1=0-20%)	1 (1=0-20%)	1 (1=0-20%)	1 (1=0-20%)	1 (1=0-20%)	1 (1=0-20%)	1 (1=0-20%)	1 (1=0-20%)
CCn1c(C)c(-c2cc(C)cs2)c(=O)c(C(=O)O)c1-c1ccc(Cl)cc1 [Compound 167, 2-(4-chlorophenyl)-1-ethyl-6-methyl-5-(4-methyl-2-thienyl)-4-oxo-pyridine-3-carboxylic acid]	4 (4=61-80%)	0	1 (1=0-20%)	3 (3=41-60%)	2 (2=21-40%)	1 (1=0-20%)	1 (1=0-20%)	2 (2=21-40%)	0	1 (1=0-20%)	3 (3=41-60%)	3 (3=41-60%)
CCn1c(C)c(-c2ccc(F)cc2OC)c(=O)c(C(=O)O)c1-c1ccc(Cl)c(Cl)c1 [Compound 157, 2-(3,4-dichlorophenyl)-1-ethyl-5-(4-fluoro-2-methoxy-phenyl)-6-methyl-4-oxo-pyridine-3-carboxylic acid]	4 (4=61-80%)	1 (1=0-20%)	4 (4=61-80%)	4 (4=61-80%)	4 (4=61-80%)	4 (4=61-80%)	0	5 (5=81-100%)	4 (4=61-80%)	2 (2=21-40%)	4 (4=61-80%)	3 (3=41-60%)
CCn1c(C)c(-c2cc(C)cs2)c(=O)c(C(=O)O)c1-c1ccc(Cl)c(Cl)c1 [Compound 86, 2-(3,4-dichlorophenyl)-1-ethyl-6-methyl-5-(4-methyl-2-thienyl)-4-oxo-pyridine-3-carboxylic acid]	4 (4=61-80%)	4 (4=61-80%)	3 (3=41-60%)	3 (3=41-60%)	4 (4=61-80%)	1 (1=0-20%)	4 (4=61-80%)	5 (5=81-100%)	3 (3=41-60%)	1 (1=0-20%)	2 (2=21-40%)	1 (1=0-20%)
CCn1c(C)c(-c2ccc(F)c(C#N)c2)c(=O)c(C(=O)O)c1-c1ccc(Cl)c(Cl)c1 [Compound 92, 5-(3-cyano-4-fluoro-phenyl)-2-(3,4-dichlorophenyl)-1-ethyl-6-methyl-4-oxo-pyridine-3-carboxylic acid]	2 (2=21-40%)	1 (1=0-20%)	1 (1=0-20%)	3 (3=41-60%)	1 (1=0-20%)	1 (1=0-20%)	1 (1=0-20%)	1 (1=0-20%)	1 (1=0-20%)	1 (1=0-20%)	1 (1=0-20%)	1 (1=0-20%)
